For two molecules, Ki and EC50 results are on record in US12559529B2, “NPY2 receptor agonists” (Boehringer Ingelheim International GmbH, priority 2019, dated 2026).

Test [1] deals with T1, Human Neuropeptide Y2 Receptor (Homo sapiens, UniProt P49146).
T1 construct: purchased CHEMICON HTS066M
T1 sequence (P49146 1-381): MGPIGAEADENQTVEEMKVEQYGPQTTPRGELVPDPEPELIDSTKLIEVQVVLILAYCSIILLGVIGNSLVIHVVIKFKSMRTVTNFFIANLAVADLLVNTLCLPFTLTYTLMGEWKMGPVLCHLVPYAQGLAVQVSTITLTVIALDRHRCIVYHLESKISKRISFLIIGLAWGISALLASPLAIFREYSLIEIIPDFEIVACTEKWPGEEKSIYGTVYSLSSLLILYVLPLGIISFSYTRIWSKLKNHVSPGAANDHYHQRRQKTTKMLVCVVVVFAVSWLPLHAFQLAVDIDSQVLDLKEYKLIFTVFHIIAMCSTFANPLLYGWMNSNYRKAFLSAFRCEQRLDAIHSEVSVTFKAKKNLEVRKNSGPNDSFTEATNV
The experiment in a line: Radioligand binding competition assay (RLB). Put shortly:
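Competition binding on human Y2 receptor membranes, 0.5 μg protein/well, in 50 mM HEPES, 5 mM MgCl2, 1 mM CaCl2, pH 7.4, 0.2% ovalbumin; peptides diluted from 1 mM DMSO stocks.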

The next test deals with T2, human NPY1 receptor (Homo sapiens, UniProt P25929).
T2 construct: expressed in transfected cells; host or cells: CHO-K1
T2 sequence (P25929 1-384): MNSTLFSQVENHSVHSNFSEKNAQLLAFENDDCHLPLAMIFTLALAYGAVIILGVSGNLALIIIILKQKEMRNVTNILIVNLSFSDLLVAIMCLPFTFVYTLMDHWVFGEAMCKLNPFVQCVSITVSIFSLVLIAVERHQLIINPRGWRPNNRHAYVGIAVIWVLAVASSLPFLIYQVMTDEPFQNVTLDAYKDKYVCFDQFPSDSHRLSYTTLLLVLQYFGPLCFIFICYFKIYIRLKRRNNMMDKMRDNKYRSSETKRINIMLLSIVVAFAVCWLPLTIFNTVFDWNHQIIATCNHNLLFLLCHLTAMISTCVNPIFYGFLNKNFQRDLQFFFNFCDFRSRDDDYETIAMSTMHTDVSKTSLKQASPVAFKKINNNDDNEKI
Kind of test: HTRF cAMP Gi assay, hY1R. The format is cell-based. To be noted: Table 4; CHO-K1 cells. On the technique in general: TR-FRET usually uses a lanthanide donor and a delayed reading to cut background.

The next test addresses T3, human NPY4 receptor (Homo sapiens, UniProt P50391).
T3 construct: expressed in transfected cells; host or cells: CHO-K1
Kind of test: HTRF cAMP Gi assay, hY4R. To be noted: Table 4; CHO-K1 cells. The format is cell-based.

Test [2] has as its target T1, Human Neuropeptide Y2 Receptor. Kind of test: Activity (RLB) after incubation in solutions at different pH values. The format is binding. To be noted: apparent Ki of filtrate after 2 h in buffer. How it is done: The filtration RLB assay was carried out in 96-well plates in a final volume of 100 μl per well. Freeze-dried test peptides were dissolved in 100% dimethyl sulfoxide (DMSO) to stock solutions of 1 mM and serial dilutions were performed in assay buffer (50 mM HEPES, 5 mM MgCl2, 1 mM CaCl2), pH 7.4) containing 0.2% ovalbumin. […] Next, 80 μL membranes (HTS066M, ChemiSCREEN™ Human Neuropeptide Y2 Receptor Membrane Preparation, CHEMICON) were added to each well to give a final protein concentration of 0.5 μg/well. The plates were sealed and incubated at room temperature for 2 hours in a plate shaker set at 400 rpm. The incubation was stopped by vacuum filtration onto 0.5% poly-ethylene amine (PEI) presoaked GF/C filters using a 96-well FilterMate™ harvester (Perkin Elmer) followed by four washes with 300 μl/well ice-cold wash buffer (50 mM HEPES, 500 mM NaCl, pH7.4). Filter plates were then dried for 60 min at room temperature and the bottom of the plates was sealed with backing tape UniFilter-96. Finally, 50 μl/well scintillation counter cocktail (Microscint20, Packard) was added and the radioactivity was counted in the Packard TopCount NXT scintillation counter. IC50 values (the half maximal inhibitory concentration of the agonist) were calculated by nonlinear regression analysis of sigmoidal dose-response curves.
Peptides (as TFA salts) were weighed out in a filter unit (Mini-UniPrep Syringeless Filter 0.45 μm, Whatman), and 0.1 M sodium diphosphate buffer at pH 6.4 or 7.4, respectively, or 0.2 M TRIS buffer at pH 8.3 was added to achieve 10 mg/ml final concentration. The peptide was (partially) dissolved by shaking the filter unit horizontally at approx. 400 rpm for 2 hours at room temperature. The sample was filtered to remove any insoluble particles.

In the next test the target is T4, human NPY5 receptor (Homo sapiens, UniProt Q15761).
T4 sequence (Q15761 1-445): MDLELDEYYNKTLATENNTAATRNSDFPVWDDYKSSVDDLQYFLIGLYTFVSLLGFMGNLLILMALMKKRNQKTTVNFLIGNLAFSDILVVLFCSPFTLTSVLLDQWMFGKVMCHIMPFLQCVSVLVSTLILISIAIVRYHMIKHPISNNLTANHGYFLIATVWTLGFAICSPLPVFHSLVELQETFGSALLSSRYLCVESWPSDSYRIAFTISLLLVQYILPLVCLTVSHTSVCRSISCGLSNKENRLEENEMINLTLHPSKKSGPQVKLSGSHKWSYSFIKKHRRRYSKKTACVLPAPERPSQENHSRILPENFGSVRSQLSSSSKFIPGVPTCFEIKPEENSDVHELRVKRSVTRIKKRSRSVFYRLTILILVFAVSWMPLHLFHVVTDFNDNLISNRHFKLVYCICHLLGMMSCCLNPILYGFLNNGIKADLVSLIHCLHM
Kind of test: HTRF cAMP Gi assay, hY5R.

A further test has as its target T5, human NPY2 receptor (Homo sapiens, UniProt P49146).
T5 sequence (P49146 1-381): T1 sequence (P49146 1-381)
The experiment in a line: HTRF cAMP Gi assay, hY2R.

Where [3] appears, read: Table 3, human 125I-PYY (1-36) 0.02 nM, Y2 receptor membranes, read-out: Ki.
Setting [4] is: Table 8, from DMSO stock, read-out: hY2R RLB Ki (nM) DMSO.
[5] abbreviates: pH6.1-6.2, assumed 10 mg/ml, read-out: RLB 6 (pH6.1-6.2).
The mark [6] stands for this setting: pH7.1-7.2, assumed 10 mg/ml, read-out: RLB 7 (pH7.1-7.2).
The mark [7] stands for this setting: pH8.1-8.2, assumed 10 mg/ml, read-out: RLB 8 (pH8.1-8.2).

T3 sequence (P50391 whole entry): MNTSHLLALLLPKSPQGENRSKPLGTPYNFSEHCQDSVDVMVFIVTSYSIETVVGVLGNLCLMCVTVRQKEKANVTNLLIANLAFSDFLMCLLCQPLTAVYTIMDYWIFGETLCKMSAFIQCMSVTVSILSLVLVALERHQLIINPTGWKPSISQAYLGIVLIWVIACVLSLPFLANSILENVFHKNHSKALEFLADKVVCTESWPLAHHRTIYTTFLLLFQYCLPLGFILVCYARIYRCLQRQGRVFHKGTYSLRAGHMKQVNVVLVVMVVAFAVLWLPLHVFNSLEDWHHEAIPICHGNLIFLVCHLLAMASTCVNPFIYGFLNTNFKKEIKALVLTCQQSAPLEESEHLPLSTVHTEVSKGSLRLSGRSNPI
Experimental for human NPY1 receptor: Briefly, the production of intracellular cAMP will generate a competition between unlabeled cAMP and exogenously added d2-cAMP for anti-cAMP antibodies conjugated to cryptate. CHO-K1 cells stably expressing the human NPY1, NPY2, NPY4 and NPY5 receptors were used with the cells brought to life from a frozen stock immediately before assay performance. 2000 cells per well were applied for all four NPY receptor subtype assays. A 384-well format was used applying a total volume of 20 μl using 5 μl cells, 2.5 μl peptide agonist, 2.5 μl forskolin and 5 μl of each of the fluorophores. […] Concentration-response evaluation of compounds was performed with 11 concentrations of agonist peptides (covering 3 decades). EC50 values were calculated by nonlinear regression using sigmoid concentration-response with variable slope.
Text for human NPY4 receptor: (§1) The Homogenous Time Resolved fluorescence (HTRF) technology optimized for Gi coupled receptors has thoroughly been described in Cisbio cAMP Gi kit manual. Briefly, the production of intracellular cAMP will generate a competition between unlabeled cAMP and exogenously added d2-cAMP for anti-cAMP antibodies conjugated to cryptate. CHO-K1 cells stably expressing the human NPY1, NPY2, NPY4 and NPY5 receptors were used with the cells brought to life from a frozen stock immediately before assay performance. 2000 cells per well were applied for all four NPY receptor subtype assays. A 384-well format was used applying a total volume of 20 μl using 5 μl cells, 2.5 μl peptide agonist, 2.5 μl forskolin and 5 μl of each of the fluorophores. […] Concentration-response evaluation of compounds was performed with 11 concentrations of agonist peptides (covering 3 decades). EC50 values were calculated by nonlinear regression using sigmoid concentration-response with variable slope.
Text for human NPY5 receptor: as §1

As to `CC[C@H](C)[C@H](NC(=O)[C@H](CCC(=O)O)NC(=O)[C@H](CCC(=O)O)NC(=O)[C@@H]1CCCN1C(=O)[C@H](CO)NC(=O)[C@H](C)NC(=O)[C@H](CC(=O)O)NC(=O)[C@H](CCC(=O)O)NC(=O)[C@H](CCC(=O)O)NC(=O)[C@@H]1CCCN1C(=O)[C@H](CCCCNC(=O)COCCOCCNC(=O)COCCOCCNC(=O)CC[C@H](NC(=O)CCCCCCCCCCCCCCCCC(=O)O)C(=O)O)NC(=O)[C@H](C)NC(=O)[C@@H]1CCCN1C(=O)[C@H](C)NC(=O)CC(C)C)C(=O)N[C@@H](CCC(N)=O)C(=O)N[C@@H](CCCNC(=N)N)C(=O)N[C@@H](Cc1ccc(O)cc1)C(=O)N[C@@H](Cc1ccc(O)cc1)C(=O)N[C@H](C(=O)N[C@@H](CO)C(=O)N[C@@H](CC(C)C)C(=O)N[C@@H](CCCNC(=N)N)C(=O)N[C@@H](Cc1c[nH]cn1)C(=O)N[C@@H](Cc1ccc(O)cc1)C(=O)N[C@@H](Cc1ccc(O)cc1)C(=O)N[C@@H](CC(N)=O)C(=O)N[C@@H](Cc1c[nH]c2ccccc12)C(=O)N[C@@H](CC(C)C)C(=O)N[C@H](C(=O)N[C@@H](CCCNC(=N)N)C(=O)N[C@@H](CCC(N)=O)C(=O)N[C@@H](CCCNC(=N)N)C(=O)N[C@@H](Cc1ccc(O)cc1)C(N)=O)[C@@H](C)O)C(C)C` [Compound 23, N{alpha-4}-(3-methylbutanoyl)-N{epsilon-7}-[2-(2-{2-[2-(2-{2-[(4S)-4-carboxy-4-(17-carboxyheptadecanamido)butanamido]ethoxy}ethoxy)acetamido]ethoxy}ethoxy)acetamido]-[4A,6A,7K,9E,17I,18Q,22V,28Y,30W,31L]hPYY (4-36)], the Ki in test [1] (setting [3]) came out at 0.63 nM; in test [1] (setting [4]) it was 4.9 nM; in test [2] (setting [5]), 6.3 nM; in test [2] (setting [6]), 6.3 nM; in test [2] (setting [7]), 6.3 nM. Besides, the EC50 at human NPY1 receptor is above 5 µM; at human NPY4 receptor, above 5 µM; on human NPY5 receptor it was above 5 µM; at human NPY2 receptor, 0.15 nM.
`CC[C@H](C)[C@H](NC(=O)[C@H](CCC(=O)O)NC(=O)[C@H](CCC(=O)O)NC(=O)[C@@H]1CCCN1C(=O)[C@H](CO)NC(=O)[C@H](C)NC(=O)[C@H](CC(=O)O)NC(=O)[C@H](C)NC(=O)[C@H](CCC(=O)O)NC(=O)[C@@H]1CCCN1C(=O)[C@H](CCCCNC(=O)COCCOCCNC(=O)COCCOCCNC(=O)CC[C@H](NC(=O)CCCCCCCCCCCCCCCCC(=O)O)C(=O)O)NC(=O)[C@H](CCC(=O)O)NC(=O)[C@@H]1CCCN1C(=O)[C@H](C)NC(=O)CC(C)C)C(=O)N[C@@H](CCC(N)=O)C(=O)N[C@@H](CCCNC(=N)N)C(=O)N[C@@H](Cc1ccc(O)cc1)C(=O)N[C@@H](Cc1ccc(O)cc1)C(=O)N[C@H](C(=O)N[C@@H](CO)C(=O)N[C@@H](CC(C)C)C(=O)N[C@@H](CCCNC(=N)N)C(=O)N[C@@H](Cc1c[nH]cn1)C(=O)N[C@@H](Cc1ccc(O)cc1)C(=O)N[C@@H](Cc1ccc(O)cc1)C(=O)N[C@@H](CC(N)=O)C(=O)N[C@@H](Cc1c[nH]c2ccccc12)C(=O)N[C@@H](CC(C)C)C(=O)N[C@H](C(=O)N[C@@H](CCCNC(=N)N)C(=O)N[C@@H](CCC(N)=O)C(=O)N[C@@H](CCCNC(=N)N)C(=O)N[C@@H](Cc1ccc(O)cc1)C(N)=O)[C@@H](C)O)C(C)C` [Compound 53, N{alpha-4}-(3-methylbutanoyl)-N{epsilon-7}-[2-(2-{2-[2-(2-{2-[(4S)-4-carboxy-4-(17-carboxyheptadecanamido)butanamido]ethoxy}ethoxy)acetamido]ethoxy}ethoxy)acetamido]-[4A,7K,9E,10A,17I,18Q,22V,28Y,30W,31L]hPYY (4-36)]: the Ki came out at 0.24 nM in test [1] (setting [3]); 2 nM in test [1] (setting [4]); 3.4 nM in test [2] (setting [5]); 3.1 nM in test [2] (setting [6]); 2.5 nM in test [2] (setting [7]). The EC50 on human NPY1 receptor was above 5 µM; at human NPY4 receptor, above 5 µM; at human NPY5 receptor it was above 5 µM; at human NPY2 receptor, 0.119 nM.

One may read the EC50 as the concentration needed to bring the measured effect to its halfway point.
